Tests used:
[1] = Cytotoxicity against African green monkey Vero E6 cells assessed as reduction of cell viability measured after 48 hrs by CCK-8 assay; assay type: toxicity, cell-based, Vero C1008; details: chlorocebus sabaeus
[2] = Selectivity index, ratio of CC50 for African green monkey Vero E6 cells to EC50 for antiviral activity against SARS-CoV-2 2019BetaCoV/Wuhan/WIV04/2019; assay type: toxicity, Vero C1008; details: read-out: Selectivity Index
[3] = tested on: SARS-CoV-2; assay: Antiviral activity against SARS-CoV-2 2019BetaCoV/Wuhan/WIV04/2019 infected in African green monkey Vero E6 cells assessed as inhibition of viral replication measured after 48 hrs; assay type: functional, organism-based; details: Severe acute respiratory syndrome coronavirus 2, 2019BetaCoV/Wuhan/WIV04/2019, Vero C1008, 48 h
[4] = molecular target: Replicase polyprotein 1ab (Severe acute respiratory syndrome coronavirus 2, UniProt P0DTD1); assay: Inhibition of SARS-CoV-2 main protease
[5] = tested on: SARS-CoV-2; assay: Antiviral activity against SARS-CoV-2 infected in African green monkey Vero cells assessed as inhibition of viral replication; assay type: functional, organism-based; details: Severe acute respiratory syndrome coronavirus 2, Vero
[6] = Cytotoxicity against african green monkey Vero cells; assay type: toxicity, cell-based; details: chlorocebus sabaeus
[7] = Selectivity index, ratio of CC50 for African green monkey Vero cells to EC50 for antiviral activity against SARS-CoV-2; assay type: toxicity; details: read-out: Selectivity Index

NC(=O)c1nc(F)c[nH]c1=O
CC50 at 48 h [1]: > 400 µM
selectivity ratio [2]: > 6.46

CCN(CC)CCCC(C)Nc1ccnc2cc(Cl)ccc12 (stereo not drawn) [CHLOROQUINE]
CC50 at 48 h [1]: > 100 µM
EC50 [3]: 1.13 µM

Cc1cccc(C)c1OCC(=O)N[C@@H](Cc1ccccc1)[C@@H](O)C[C@H](Cc1ccccc1)NC(=O)[C@H](C(C)C)N1CCCNC1=O [LOPINAVIR]
IC50 [4]: 9.12 µM

N=C(N)c1ccc2cc(OC(=O)c3ccc(N=C(N)N)cc3)ccc2c1 [NAFAMOSTAT]
EC50 [5]: 22.5 µM
CC50 [6]: > 100 µM
selectivity ratio [7]: 4.44

O=C(Nc1ccc([N+](=O)[O-])cc1Cl)c1cc(Cl)ccc1O [NICLOSAMIDE]
CC50 at 48 h [1]: > 35.5 µM
EC50 [3]: 2.12 µM

Nc1nc2c(ncn2CCC(CO)CO)c(=O)[nH]1 [PENCICLOVIR]
CC50 at 48 h [1]: > 400 µM
selectivity ratio [2]: > 4.17

NC(=O)c1ncn([C@@H]2O[C@H](CO)[C@@H](O)[C@H]2O)n1 [RIBAVIRIN]
CC50 at 48 h [1]: > 400 µM
